“Also recorded” adds a separate entry of the source.
How the values were obtained:
Format in all cases: cell-based
bacterial biofilm [1] = experiment: End-point confocal microscopy quantification of bacterial biofilm thickness (FIG. 8); settings: Combination: 100 μM autoinducer-2 analog isobutyl DPD plus 0.125V AC at 10 MHz offset by 0.125V DC, compared with either alone
Description: FIG. 8 is a bar graph showing the results of end-point confocal microscopy quantification of bacterial biofilm thickness for different treatment conditions, including combined electrical measuring and quorum sensing inhibitors (e.g., autoinducer-2 analog).
Although the preceding paragraphs address the bioelectric effect based on antibiotics, similar results can be obtained with other antimicrobial agents, such as quorum sensing inhibitors. In particular, FIG. 8 illustrates the results of experiments for different treatment conditions using autoinducer-2 analog. “LB control” represents an experiment where no electric field or autoinducer-2 analog was present. “E-field only” represents an experiment where an electrical signal of 0.125V AC at 10 MHz offset by 0.125V DC was applied to electrodes, without any autoinducer-2 analog present. “AI-2 analog” represents an experiment where autoinducer-2 analog is introduced (e.g., 100 μM autoinducer-2 analog isobutyl DPD) without any electrical signal applied to the electrodes. “Combination” represents an experiment where the electrical signal is applied to the electrodes and autoinducer-2 analog is introduced.

bacterial biofilm [2] = experiment: Real-time fractional relative change of impedance during treatment with threshold-triggered 100 mV signal (FIG. 7); settings: 24 hour treatment
Description: FIG. 7 illustrates the fractional relative change of impedance measurements in experiments similar to that of FIG. 6B. In particular, treatment is performed by applying a 100 mV signal across the same electrodes used for impedance detection, in combination with near MIC levels of antibiotic, thereby generating a second bioelectric effect. This bioelectric effect was applied at regular intervals for only ˜1/7 of the total 24 hour treatment period.
The “E-field” curve represents an experiment where an intervallic 100 mV AC electrical signal (e.g., at 1 MHz) in addition to the periodic 5 mV AC detection voltage was applied to the electrodes, but without any antibiotic present. The “BE” curve represents an experiment where an intervallic 100 mV AC electrical signal (e.g., at 1 MHz) in addition to the periodic 5 mV AC detection voltage was applied to the electrodes, and with 10 μg/mL of gentamicin present. The decision to apply the 100 mV AC signal in both experiments was made by logic using the impedance data gathered in the sensing mode (i.e., using the 5 mV AC detection voltage). If the average sensing mode data point was less than a predefined threshold, then the larger 100 mV electric field treatment was applied; otherwise, the system continued in sensing mode with the periodic application of the 5 mV AC detection voltage. […]

[3] = system: Escherichia coli (K12 W3110) biofilm; experiment: Crystal violet absorbance assay biomass quantification (FIG. 6B); settings: 24-hour treatment
Description: (§1) In particular, each experiment employed a flow system including a growth media reservoir, waste reservoir, and the detecting device connected using polymer tubing and luer connectors in between the reservoirs. Fluid was pumped through the flow system by a peristaltic pump. The detecting device and tubing were placed in an incubator maintained at 37° C., to mimic the temperature found in an inserted catheter. Escherichia coli (K12 W3110) were cultured in incubator at 37° C. and then diluted to an OD600 of 0.25. 1 ml of the diluted E. coli solution was then introduced into the catheter tube directly via syringe. […] Throughout the Growth phase, the system impedance (Z) is measured by the detecting device every 2 minutes, with the relative change being used to monitor biofilm formation. […]
CV absorbance staining was used to quantify the end-point biomass and to validate the impedance measurements of FIG. 6A. […] Optical absorbance at a wavelength (λ) of 590 nm was then measured, with increases corresponding to increased biomass. One-way analysis of variance (ANOVA) was used to determine statistical significance of the biomass quantification results.
FIG. 6B illustrates the results of the CV absorbance assay for various treatment conditions in experiments employing a detecting device fabricated according to the structure of FIGS. 3A-3B and employing a benchtop potentiostat as the voltage source.

[4] = system: Escherichia coli (K12 W3110) biofilm; experiment: Real-time impedance sensing of biofilm during 24-hour treatment period (FIG. 6A); settings: BE: gentamicin 10 μg/ml plus sensing, AC 50 mV at 100 Hz, 30 s of every 150 s; 24-hour treatment of 24-hour biofilm; increase corresponds to removal of biofilm
Description: as §1, with “syringe. The bacteria were allowed to attach to the interior surface under static (no flow) conditions for 2 hours (referred to as the Seeding phase).” for “syringe.”
As noted above, the sensing voltage applied to the electrodes of the detecting device 300 can also synergistically enhances any antimicrobial agent present to deliver a bioelectric effect. FIG. 6A illustrates the measured impedance characteristics in experiments employing a detecting device fabricated according to the structure of FIGS. 3A-3B and employing a benchtop potentiostat as the voltage source. […]

`CC(C)CC(=O)C(=O)C(O)CO` (stereo not drawn) [autoinducer-2 analog, isobutyl DPD] was tested, and the “reduction of biofilm thickness” value (bacterial biofilm [1]) was “substantially improved efficacy in reducing biofilm thickness over either alone”.

For gentamicin, the “change in 100 Hz impedance at the end of treatment phase” value (bacterial biofilm [2]; "Antibiotic": 10 μg/mL gentamicin with periodic 5 mV AC detection voltage) was “increase in 100 Hz impedance; also recorded: as effective in treating the biofilm”, the “change in 100 Hz impedance at the end of treatment phase” value (bacterial biofilm [2]; "BE": 10 μg/mL gentamicin with intervallic 100 mV AC (1 MHz) plus periodic 5 mV AC detection voltage) was “increase in 100 Hz impedance” and the “end-point biofilm biomass (CV absorbance at 590 nm)” value ([3]; Anti-only: antibiotic without impedance sensing) was “significantly higher biomass of biofilm”. For the same compound, the “end-point biofilm biomass (CV absorbance at 590 nm)” value ([3]; BE: sensing + antibiotic (gentamicin 10 μg/ml)) was “biomass similar to a bacteria-free control” and the “impedance change during the treatment period” value [4] was about 20%.

From patent US20210290839A1, “SYSTEMS AND METHODS FOR DETECTING AND TREATING BACTERIAL BIOFILMS” (UNIVERSITY OF MARYLAND, COLLEGE PARK, priority 2017, published 2021)
